Assay results from patent US20250052763A1, “COMPOSITIONS AND METHODS FOR IDENTIFYING LIGANDS OF ODORANT RECEPTORS” (Duke University, priority 2021, published 2025).

The molecules below were run on odorant receptors (ORs) expressed by OSNs (assay: pS6-IP-Seq: identification of ORs activated by odorants in vivo). Settings: odorant at 3 mM; responsive = log2FC>0 and FDR<0.05.
Design: species or system mouse
Procedure: Phosphorylated S6 Ribosomal Capture (pS6-IP)
Mice used for pS6-IP were ˜3 weeks old, mixed sex, and littermates. Mice were killed by CO2 asphyxiation and cervical dislocation. Olfactory tissue was rapidly dissected in Buffer B (2.5 mM HEPES KOH pH 7.4, 0.63% glucose, 100 g/mL cycloheximide, 5 mM sodium fluoride, 1 mM sodium orthovanadate, 1 mM sodium pyrophosphate, 1 mM β-glycerophosphate, in Hank's balanced salt solution). Tissue pieces were then minced in 1.35 mL Buffer C (150 mM KCl, 5 mM MgCl2, 10 mM HEPES KOH pH 7.4, […], 2 mM DTT, 100 U/mL RNAsin, 100 µg/mL cycloheximide, protease inhibitor cocktail, 5 mM sodium fluoride, 1 mM sodium orthovanadate, 1 mM sodium pyrophosphate, 1 mM β-glycerophosphate) and subsequently transferred to homogenization tubes for steady homogenization at 250 rpm three times and at 750 rpm nine times at 4° C. […] This solution was mixed and then clarified at a max speed (17,000×g) for 10 min at 4° C. The resulting high-speed supernatant was transferred to a new tube where 20 μL was saved and transferred to a tube containing 350 L buffer RLT. To the remainder of the sample, 1.3 μL of 100 μg/mL cycloheximide, 27 μL of phosphatase inhibitor cocktail (250 mM sodium fluoride, 50 mM sodium orthovanadate, 50 mM sodium pyrophosphate, 50 mM β-glycerophosphate) and 6 μL of anti-pS6 antibody (Cell Signaling D68F8) were added. The sample was gently rotated for 90 min at 4° C. To prepare beads, 100 L of beads (Invitrogen 10002D) was washed three times with 900 L of buffer A (150 mM KCl, 5 mM MgCl2, 10 mM HEPES KOH pH 7.4, 10% NP40, 10% BSA), and once with 500 L of buffer C. Sample homogenate was added to the beads and incubated with gentle rotation for 60 min at 4° C. Following incubation, beads were washed with four times with 700 μL of buffer D (350 mM KCl, 5 mM MgCl2, 10 mM HEPES KOH pH 7.4, 10% NP40, 2 mM DTT, 100 U/mL RNAsin, 100 μg/mL cycloheximide, 5 mM sodium fluoride, 1 mM sodium orthovanadate, 1 mM sodium pyrophosphate, 1 mM β-glycerophosphate). During the final wash, beads were moved to room temperature, wash buffer was removed, and […] of buffer RLT was added. Beads were incubated in buffer RLT for 5 min at room temperature. Buffer RLT containing immunoprecipitated RNA was then eluted and stored at −80° C. until clean up using a kit (Qiagen 74004). cDNA was generated using 11 rounds of amplification with 10 ng RNA input. […] Libraries were sequenced on either HiSeq 2000/2500 (50 base pair single read mode) or NextSeq 500 (75 base pair single read mode) with 6-12 pooled indexed libraries per lane.
Reads mapping to Olfr290 were inferred from ENSMUSG00000070459, with the rationale that this gene model included ENSMUSG00000116179 plus untranslated regions. […] Intact Olfr genes with identifiable sequences were filtered, and p-values were then re-corrected by FDR. […] Raw and processed RNA-Seq datasets generated as part of this study are available from NCBI GEO at accession GSE185415.
First, ORs activated by a set of 61 odorants at various concentrations were determined by leveraging pS6-IP-Seq. […] ORs were considered odor-responsive if enrichment values (log2FC) were positive with a false discovery rate (FDR)<0.05.

Row | SMILES | ORs identified as responsive by pS6-IP-Seq
1 | C[C@]12CCC(=O)C[C@@H]1CC[C@@H]1[C@@H]2CC[C@]2(C)C=CC[C@@H]12 [androstenone] | no ORs were identified as responsive

Same assay, conditions: odorant at 1%; excluded from all analysis

Row | SMILES | number of ORs identified as responsive, relative to the mean
2 | CC(=O)c1ccccc1O [2′-hydroxyacetophenone] | more than five standard deviations away from the mean

Same assay, conditions: odorant at 1%; responsive = log2FC>0 and FDR<0.05

Row | SMILES | ORs identified as responsive by pS6-IP-Seq
3 | C=C(C)C1CCC(C)C(O)C1 (single isomer, unassigned; (-)) [(−)-dihydrocarveol] | no ORs were identified as responsive
4 | CSC [dimethyl sulfide] | no ORs were identified as responsive
5 | C=C(C)C1CCC(C)C(O)C1 (single isomer, unassigned; (+)) [(+)-dihydrocarveol] | no ORs were identified as responsive
6 | CCC(=O)O [propionic acid] | no ORs were identified as responsive
7 | c1ccc2[nH]ccc2c1 [indole] | no ORs were identified as responsive
8 | C=C1CC/C=C(\C)CC[C@@H]2[C@@H]1CC2(C)C [P-Caryophyllene] | no ORs were identified as responsive
9 | CC(C)=CCC/C(C)=C/CO [geraniol] | no ORs were identified as responsive
